# Patent US8029764B2, “Methods for detection of colorectal cancer” (The Johns Hopkins University, priority 2001, dated 2011)
# Tested on: colorectal tissue transcripts
# Experiment: SAGE of normal, adenoma and cancer colorectal tissue (transcript tag counts)
# Design: species or system human
# Procedure, shortened: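 SAGE libraries from two normal colonic epithelium samples, two colorectal adenomas (FAP patients, >70% neoplastic cells) and two colorectal cancers. Transcripts counted as 15-base 3′ tags from oligo(dT)-selected mRNA; repeated ditags, linkers and MHC-locus tags excluded before statistical library comparison.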
# [1] = normal colorectal tissue library 1
# [2] = normal colorectal tissue library 2
Sequence,AD1 (SAGE tag count) (adenoma library 1),AD2 (SAGE tag count) (adenoma library 2),CA1 (SAGE tag count) (cancer library 1),CA2 (SAGE tag count) (cancer library 2),NC1 (SAGE tag count) [1],NC2 (SAGE tag count) [2],AD1 (SAGE tag count) (SAGE library AD1),AD2 (SAGE tag count) (SAGE library AD2),CA1 (SAGE tag count) (SAGE library CA1),CA2 (SAGE tag count) (SAGE library CA2),NC1 (SAGE tag count) (SAGE library NC1),NC2 (SAGE tag count) (SAGE library NC2)
TTTTCTGCAT (chemistry not fully specified),1,0,1,2,8,7,,,,,,
CTTATGGTCC (chemistry not fully specified),,,,,,,0,1,1,0,36,11
CCCGCCTCTT (chemistry not fully specified),,,,,,,3,3,16,1,0,40
GCAGCTCCTG (chemistry not fully specified),,,,,,,3,2,7,3,13,47
GATCCCAACT (chemistry not fully specified),,,,,,,5,7,1,1,9,29
CCTTCAAATC (chemistry not fully specified),,,,,,,0,0,1,0,29,17
ATGTGGGCTC (chemistry not fully specified),,,,,,,0,0,0,0,7,2
CTGTACTTGT (chemistry not fully specified),,,,,,,1,1,0,0,9,5
TTATGGTGTG (chemistry not fully specified),0,0,0,0,11,17,,,,,,
TGATCTCTGT (chemistry not fully specified),1,0,1,1,6,7,,,,,,
TAAATTGCAA (chemistry not fully specified),8,17,5,3,103,59,,,,,,
GCCCACGTCA (chemistry not fully specified),,,,,,,0,0,0,0,7,8
